Experimental data as given in paper PMC9190099, “Menthol carbonates as potent antiparasitic agents: synthesis and in vitro studies along with computer-aided approaches” (BMC Complementary Medicine and Therapies, 2022).
Where two headings read alike, the source gives them in different places.

What was measured:
in vitro = experiment: in vitro
Method: Then, 100 µL of cell suspension and 100 μL of each concentration of the compounds were placed in each well of 96-well tissue culture microplate, and plates were incubated again at 37 °C, 5% CO2. […] The reaction was stopped with 100 μL/well of DMSO and absorbance was recorded at 570 nm (Varioskan Flash, Thermo Scientific, Waltham, MA, USA). […] Each measurement was done in triplicate in two independent experiments.
To calculate the cytotoxicity, the percentages of mortality for each concentration tested were calculated according to Eq. 1:
1 %Mortality=100-ODexposedcells/ODnonexposedcellsx100
(§1) Then, these percentages of mortality were used to calculate the median lethal concentrations (LC50) by Probit analysis using Graphpad Prism 8 software. In the case of antiparasitic activity (L. braziliensis, T. cruzi and P. falciparum), the percentage in the reduction of parasites for each concentration tested was quantified using Eq. 2:
(§2) All experiments were performed in triplicate. Both cytotoxicity and antiparasitic activity were classified as high, moderate, or low, according to ranges previously established based on the own hit criteria.

[1] = test system: L. braziliensis intracellular amastigotes (HMOM/COL/88/UA301-EGFP); experiment: In vitro activity against L. braziliensis amastigotes in U-937 cells (flow cytometry); assay type: cell-based, Leishmania braziliensis; conditions: for Leishmanicidal activity IS (Index of Selectivity = LC50/EC50): LC50 U-937 / EC50 L. braziliensis; for EC50: intracellular amastigotes of L. braziliensis, 72 h, read-out: Leishmanicidal activity EC50 (median effective concentration); for Leishmanicidal activity class: L. braziliensis amastigotes
Method: (§3) Compounds were solubilized in DMSO (1 mg/mL, w/v).
One ml was dispensed into each well of a 24-well culture plate. After 72 h, cells were infected with promastigotes of L. braziliensis (HMOM/COL/88/UA301-EGFP) in a proportion of 15:1 (parasites per cell ratio). Plates were incubated at 34 °C, 5% CO2, and 3 h after non-internalized promastigotes were removed by washing twice with phosphate buffer (PBS). Plates were incubated again at 34 °C, 5% CO2, and 24 h later cells were washed with warm PBS and medium replaced. […] After 72 h, cells were removed using trypsin/EDTA solution and washed twice with PBS by centrifuging 10 min at 1100 rpm, 4 °C. […] The percentage of infected cells was calculated using dot plot analysis according to positive events for green fluorescence and then parasite load in these infected cells was calculated by histogram analysis according to the mean fluorescence intensity (MFI). Infected cells were used as control of infection (negative control) and infected cells exposed to Amphotericin B (AMB) were used as control of antileishmanial activity (positive control).
as §1
(§4) 2 %Parasitereduction=100ODorMFIexposedparasites/ODorMFIcontrolparasitesx100
as §2

[2] = test system: T. cruzi intracellular amastigotes (Tulahuen strain); experiment: In vitro activity for T. cruzi amastigotes in U-937 cells; assay type: cell-based, Trypanosoma cruzi; conditions: for Trypanocidal activity IS (Index of Selectivity = LC50/EC50): LC50 U-937 / EC50 T. cruzi; for EC50: Trypanosoma cruzi, TULAHUEN, U-937, intracellular amastigotes of T. cruzi, 72 h, read-out: Trypanocidal activity EC50 (median effective concentration)
Method: as §3
Plates were incubated at 37 °C, 5% CO2. After 72 h of incubation, cells were infected with 5:1 […] of Tulahuen strain (24 h of growing) per cell ratio. Plates were incubated at 37 °C, 5% CO2. After 24 h of incubation 100 μL of each compound concentration were added to each well and plates were incubated again at 37 °C, 5% CO2. After 72 h of incubation 100 μL of chlorophenol red-β-D-galactopyranoside (CPRG) at 100 µM and 0.1%, Nonidet P-40 was added, and after 3 h of incubation, absorbance was read at 570 nm (Varioskan, Thermo). Infected cells exposed to Benznidazole (BZN) were used as a control for trypanocidal activity (positive control) while infected and non-treated cells were used as a control for infection (negative control). Nonspecific absorbance was corrected as described above. Each measurement was done in triplicate in two independent experiments.
as §1, §4, §2

[3] = test system: P. falciparum (3D7 strain); experiment: In vitro antiplasmodial activity (pLDH); assay type: cell-based, Plasmodium falciparum; conditions: for Antiplasmodial activity IS (Index of Selectivity = LC50/EC50): LC50 U-937 / EC50 P. falciparum; for Antiplasmodial activity class: P. falciparum; for EC50: Plasmodium falciparum, P. falciparum 3D7, total forms, 48 h, read-out: Antiplasmodial activity EC50 (median effective concentration)
Method: Unsynchronized P. falciparum (3D7 strain) culture was adjusted to 0.5% parasitemia and 1% hematocrit in RPMI medium enriched with 3% lipid-rich bovine serum albumin-Albumax II. In each well of a 96-well tissue culture plate, 100 µl of parasite suspension and 100 µl of each dilution of the compounds were added. Plates were incubated for 48 h at 37 °C, 90% N2, 5% CO2, 5% O2. After incubation, supernatants were harvested and parasites were subjected to three 20–minute freeze–thaw cycles. In a second flat–bottomed 96-well microtiter plate were dispensed 100 µL of Malstat reagent, pH 9.0, 25 µL of NBT/PES solution, and 15 µL of lysed parasites. Plates were incubated in the dark at 37 °C for 90 min and color development of the pLDH reaction was read at 650 nm (Varioskan, Thermo). […] Nonspecific absorbance was corrected by subtracting optical density (OD) of the blank. […]. Each measurement was done in triplicate in two independent experiments.
as §1, §2

[4] = test system: Echinococcus multilocularis protoscoleces; parameters: method as in PMID 32101761; conditions: E. multilocularis protoscoleces, in vitro; cited from earlier work
[5] = test system: murine model of alveolar echinococcosis; parameters: method as in PMID 32101761; conditions: listed as menthol-pentanol prodrug; cited from earlier work
[6] = test system: Leishmania amazonensis promastigotes; parameters: method as in earlier work; conditions: ref 53 (Silva et al. 2017), read-out: EC50 against Leishmania amazonensis promastigotes; cited from earlier work
L. branziliensis = test system: L. branziliensis; parameters: method as in PMID 28509873; conditions: previous studies; read-out: EC50 reported for L. branziliensis; cited from earlier work
[7] = Leishmania braziliensis, U-937, 72 h

Compound	CC50 at 72 h (in vitro) [µM]	Leishmanicidal activity IS (Index of Selectivity = LC50/EC50) [1]	EC50 ([1]; Leishmania braziliensis, U-937) [µM]	Trypanocidal activity IS (Index of Selectivity = LC50/EC50) [2]	EC50 [2] [µM]	Antiplasmodial activity IS (Index of Selectivity = LC50/EC50) [3]	Antiplasmodial activity class [3]	EC50 [3] [µM]	EC50 [1, 7] [µM]	Leishmanicidal activity class [1]	EC50 [1] [µM]	protoscolicidal effect [4]	clinical efficacy [5]	Trypanocidal activity class ([2]; T. cruzi amastigotes)	EC50 [6] [µM]	EC50 (L. branziliensis) [µM]
C[C@@H]1[C@H](O)[C@@H](C)/C=C/C=C/C=C/C=C/C=C/C=C/C=C/[C@H](O[C@@H]2O[C@H](C)[C@@H](O)[C@H](N)[C@@H]2O)C[C@@H]2O[C@](O)(C[C@@H](O)C[C@@H](O)[C@H](O)CC[C@@H](O)C[C@@H](O)CC(=O)O[C@H]1C)C[C@H](O)[C@H]2C(=O)O [AMB, Amphotericin B, reference compound]	53.9 ± 7.4	134.8	0.4 ± 0.1	–	–	–	–	–	–	–	–	–	–	–	–	–
O=C(Cn1ccnc1[N+](=O)[O-])NCc1ccccc1 [BNZ, Benznidazole, reference compound]	> 768	–	–	12.8	60.1 ± 12.2	–	–	–	–	–	–	–	–	–	–	–
COC(=O)OC1CC(C)CCC1C(C)C (centres unmarked) [Compound 1, Metyl(2-Isopropyl-5-methylcyclohexanol)carbonate]	68.5 ± 6.7	3.0	–	0.6	105 ± 34.5	0.5	low (low activity (EC50 > 100 μM))	127 ± 9.9	22.9 ± 2.8	–	–	–	–	–	–	–
CCOC(=O)OC1CC(C)CCC1C(C)C (centres unmarked) [Compound 2, Etyl(2-Isopropyl-5-methylcyclohexanol)carbonate]	103 ± 35.8	3.6	–	3.1	33.8 ± 4.3	3.6	high (high (EC50 < 50 μM))	28.4 ± 0.4	28.4 ± 0.4	–	–	–	–	–	–	–
CCCOC(=O)OC1CC(C)CCC1C(C)C (centres unmarked) [Compound 3, Propyl(2-Isopropyl-5-methylcyclohexanol)carbonate]	57 ± 14.4	1.8	–	1.7	33.8	0.9	–	60.7 ± 1.2	31.8 ± 4.1	–	–	–	–	–	–	–
CC1CCC(C(C)C)C(OC(=O)OC(C)C)C1 (centres unmarked) [Compound 4, Isopropyl(2-Isopropyl-5-methylcyclohexanol)carbonate]	145 ± 74.5	3.4	–	0.1	2060 ± 175	2.4	–	60.7 ± 1	43.2 ± 0.3	–	–	–	–	–	–	–
CCCCOC(=O)OC1CC(C)CCC1C(C)C (centres unmarked) [Compound 5, Butyl(2-Isopropyl-5-methylcyclohexanol)carbonate]	207 ± 38.2	3.5	–	1.7	122 ± 21.4	3.7	–	56.3 ± 1	53.3	moderate (moderate (EC50 > 50 μM < 100 μM))	59.3 ± 1.4	–	–	–	–	–
CCCCCOC(=O)OC1CC(C)CCC1C(C)C (centres unmarked) [Compound 6, Pentyl(2-Isopropyl-5-methylcyclohexanol)carbonate]	–	–	–	7.4	29.6 ± 1.2	–	–	–	96.7 ± 0.6	moderate (moderate (EC50 > 50 μM < 100 μM))	–	greater protoscolicidal effect than menthol	clinical efficacy similar to Albendazole	–	–	–
CCCCCCOC(=O)OC1CC(C)CCC1C(C)C (centres unmarked) [Compound 7, Hexyl(2-Isopropyl-5-methylcyclohexanol)carbonate]	73.3 ± 15.8	2.6	–	1.6	46.3 ± 4.9	0.2	low (low activity (EC50 > 100 μM))	432 ± 239	28.2 ± 1.1	–	–	–	–	–	–	–
CCCCCCCOC(=O)OC1CC(C)CCC1C(C)C (centres unmarked) [Compound 8, Heptyl(2-Isopropyl-5-methylcyclohexanol)carbonate]	48.4 ± 6.1	–	–	1.8	27.6 ± 4.4	0.7	–	67.4 ± 5.8	> 23.5	–	–	–	–	–	–	–
CCCCCCCCOC(=O)OC1CC(C)CCC1C(C)C (centres unmarked) [Compound 9, Octyl(2-Isopropyl-5-methylcyclohexanol)carbonate]	44.1 ± 3.8	0.1	–	1.7	26.7 ± 4.6	0.7	–	62.4 ± 6.5	463 ± 206	–	–	–	–	–	–	–
COc1cccc2c1C(=O)c1c(O)c3c(c(O)c1C2=O)C[C@@](O)(C(=O)CO)C[C@@H]3O[C@H]1C[C@H](N)[C@H](O)[C@H](C)O1 [DOXO, Doxorubicin, reference compound]	1.7 ± 0.2	–	–	–	–	–	–	–	–	–	–	–	–	–	–	–
CC1CCC(C(C)C)C(O)C1 (centres unmarked) [Menthol, 2-Isopropyl-5-methylcyclohexanol]	266 ± 188	–	–	1.5	173 ± 28.9	0.7	–	358 ± 51	> 128	–	–	–	–	low (low activity (EC50 > 100 μM))	1270	–
C=CCc1ccc(O)c(OC)c1 [eugenol]	–	–	–	–	–	–	–	–	–	–	–	–	–	–	505	60.4
